We go through eleven compounds from PubChem BioAssay AID2060360 (Molecular Pharmacology Branch, DTP, NCI, 2025).

The test system of the experiment is 282377-053-R-J1-PDC tumor spheroids, viability. Kind of experiment: Anticancer human tumor 282377-053-R-J1-PDC patient-derived colon adenocarcinoma cell line growth inhibition [TAK]. The conditions noted are these: spheroids with HUVEC and MSC; for viability, T/C: stronger effect = lower value. From the text: Combinatorial screen of targeted agents with TAK-243 and ipatasertib in multi-cell type tumor spheroids
A high-throughput screen of multi-cell type tumor spheroids was designed to identify active combinations of targeted small molecules and TAK-243 or ipatasertib. Complex spheroids include a stromal component modeled by human endothelial cells (HUVEC) and fibroblasts modeled by human mesenchymal stem cells (MSCs). The concentration ranges selected for each drug and investigational agent were based upon clinically achievable concentrations if the clinical Cmax of the agent was known.
Compounds. The drugs and investigational agents: TAK-243 (785004), ipatasertib (767898), everolimus (733504), selumetinib (741078), bortezomib (756655), trametinib (758246), ixazomib (758254), vemurafenib (761431), dabrafenib (764134), sapanisertib (764658), alpelisib (765974), and copanlisib (816437), were obtained from the National Cancer Institute (NCI) Developmental Therapeutics Program Chemical Repository. The FDA-approved anticancer drug set is available from the NCI Developmental Therapeutics Program. […] The stock solutions were prepared in dimethyl sulfoxide (DMSO, Sigma-Aldrich, St. Louis, MO, cat. D2650) at 800-fold the tested concentration and stored at -70 degrees C prior to their use. All drugs and investigational agents were tested over a range starting from a high concentration at or near the clinical Cmax and decreasing in half-log increments. If the clinical Cmax for an agent had not been determined, the highest concentration tested was 10 microM.
NCI60 Cell Culture. NCI60 cell lines were obtained from the NCI Developmental Therapeutics Program Tumor Repository. For each lot of cells, the Repository performed Applied Biosystems AmpFLSTR Identifiler testing with PCR amplification to confirm consistency with the published Identifier STR profile for each cell line. Cells were kept in continuous culture for no more than 20 passages. The optimal seeding densities for each of the cell lines at each time point assessed were determined prior to performing the concentration response studies. Briefly, the NCI60 human tumor lines were grown as monolayers in RPMI 1640 medium supplemented with 10% FBS and 2 mmol/L L-glutamine.
An additional 2 lines were from the NCI60 cell line panel including melanomas, MALME-3M and SK-MEL-2. Pooled donor human umbilical vein endothelial cells (HUVEC, Lonza, cat. CC-2519) and human mesenchymal stem cells (hMSC, Lonza, cat. PT-2501) were purchased from Lonza (Walkersville, MD).
PDMR cell lines were grown in complete medium (DC medium): Dulbecco's modified Eagle's medium (DMEM)/F12 supplemented with 5% fetal bovine serum (FBS), 2 mM L-glutamine, 100 U/mL penicillin and 100 µg/ml streptomycin, 0.4 µg/ml hydrocortisone, 10 ng/ml epidermal growth factor (EGF) recombinant human protein, 24 µg/mL adenine, and 0.1 mg/mL primocin. During culture from frozen stock vials, PDMR cells were cultured in the same medium containing 10 µM Y-27632 (see Table 3). The PDCs were cultured in complete DMEM/F12 media without 10 microM Y-27632 dihydrochloride for at least two passages prior to the screen. The pooled donor HUVEC and hMSC were cultured in endothelial cell growth medium 2 (PromoCell, Heidelberg, Germany, cat. C-22011) and mesenchymal stem cell growth medium 2 (PromoCell, cat. C-28009), respectively. For all experiments, HUVEC and hMSC were used at passages </=5.
For the pre-screen, cell seeding densities were determined from a titration spanning the range from 5,000 to 313 cells per well. The mct-spheroids including 60% malignant cells, 25% HUVEC and 15% MSC dispensed as a mixture into U-bottom Ultra-Low Attachment 384-well plates (Corning, NY)
High-throughput Drug Combination Screening.
Prior to their inoculation into 384-well plates, malignant cells, HUVEC, and hMSC were removed from T flasks using TrypLE express (Thermo Fisher Scientific, cat. 12605036) and harvested by centrifugation for 5 min at 233 x g. […]

As a reminder, the viability, T/C is the result in the treated group divided by that in the control group, in per cent. As a reminder, the IC50 is the concentration that gives 50% inhibition.

Molecules are shown by their SMILES. “And” between values parts separate entries of the source, which are not always exact repeats. Equal entries are not always repeated.
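Also: spheroids exposed to drugs for seven days before readout.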

For `CC(=O)Nc1cccc(-n2c(=O)n(C3CC3)c(=O)c3c(Nc4ccc(I)cc4F)n(C)c(=O)c(C)c32)c1`, the viability, T/C is, setting by setting: (compound 94.9 pM) 98.3% and 96.1%; (compound 0.0003 µM) 86.1% and 84.3%; (compound 0.000949 µM) 70.9% and 75.1%; (compound 0.003 µM) 60.2% and 62.8%; (compound 0.00949 µM) 29.5% and 37.9%; (compound 0.03 µM) 13.8% and 13.7%. Moreover, the IC50 (curve of compound) was 3.89 nM and 5.29 nM.

On to `CC(C)(C)c1nc(-c2cccc(NS(=O)(=O)c3c(F)cccc3F)c2F)c(-c2ccnc(N)n2)s1`, for which the viability, T/C is 85.2% and 87.2% (compound 0.0316 µM); 84.1% and 87.2% (compound 0.1 µM); 78.2% and 83.8% (compound 0.316 µM); 78.9% and 81.5% (compound 1 µM); 79% and 76% (compound 3.16 µM); 69.4% and 69.9% (compound 10 µM). Also, the IC50 (curve of compound) was > 10000 nM.

For the compound `CC(C)CC(NC(=O)C(Cc1ccccc1)NC(=O)c1cnccn1)B(O)O` (stereo unspecified), the viability, T/C by setting is: (compound 31.6 pM) 106% and 102%; (compound 0.0001 µM) 98.4% and 102%; (compound 0.000316 µM) 99.5% and 94.6%; (compound 0.001 µM) 109% and 101%; (compound 0.00316 µM) 100% and 97.2%; (compound 0.01 µM) 93.2% and 81.1%. Besides, the IC50 (curve of compound) was > 10 nM.

On to `CC(C)CC(NC(=O)CNC(=O)c1cc(Cl)ccc1Cl)B1OC(=O)CC(CC(=O)O)(C(=O)O)O1` (stereo unspecified), for which the viability, T/C was 97.6% and 92.8% (compound 0.000316 µM); 95.9% and 104% (compound 0.001 µM); 101% and 95.3% (compound 0.00316 µM); 97.9% and 101% (compound 0.01 µM); 93.3% and 95% (compound 0.0316 µM); 5.66% and 8.2% (compound 0.1 µM). For the same compound, for the setting “curve of compound”, the IC50 was 55.8 nM and 57.5 nM.

With `CC(C)NCC(C(=O)N1CCN(c2ncnc3c2C(C)CC3O)CC1)c1ccc(Cl)cc1` (stereo unspecified), the viability, T/C reads like this: (compound 0.3 µM) 100% [middle of 10 runs]; (compound 0.949 µM) 92% [middle of 10 runs]; (compound 3 µM) 84.9% [middle of 10 runs]; (compound 9.49 µM) 81.9% [middle of 10 runs]; (compound 30 µM) 69.3% [middle of 10 runs]. Moreover, the IC50 (compound alone, run of 03/19/2020) was > 30000 nM.

Consider `CC(C)n1nc(-c2ccc3oc(N)nc3c2)c2c(N)ncnc21`, for which the viability, T/C is 99.5% and 93.2% (compound 0.000316 µM); 99% and 92.6% (compound 0.001 µM); 99.7% and 91.3% (compound 0.00316 µM); 89.3% (compound 0.01 µM); 83% and 83.3% (compound 0.0316 µM); 49.6% and 59.1% (compound 0.1 µM). Under “curve of compound”, the IC50 is > 100 nM.

In the case of `CCCS(=O)(=O)Nc1ccc(F)c(C(=O)c2c[nH]c3ncc(-c4ccc(Cl)cc4)cc23)c1F`, the viability, T/C reads like this: (compound 0.316 µM) 86.4% and 86.2%; (compound 1 µM) 82.3% and 82.7%; (compound 3.16 µM) 82.7% and 85.6%; (compound 10 µM) 21.3% and 27%; (compound 31.6 µM) 89.4% and 84.6%; (compound 100 µM) 75.5% and 94%. Also, where the note is “curve of compound”, the IC50 was > 100000 nM.

On to `COC1CC2CCC(C)C(O)(O2)C(=O)C(=O)N2CCCCC2C(=O)OC(C(C)CC2CCC(OCCO)C(OC)C2)CC(=O)C(C)C=C(C)C(O)C(OC)C(=O)C(C)CC(C)C=CC=CC=C1C` (stereo unspecified), for which the viability, T/C is 101% and 99.3% (compound 0.000316 µM); 101% and 97.3% (compound 0.001 µM); 97.6% and 98.6% (compound 0.00316 µM); 102% and 103% (compound 0.01 µM); 94.2% and 95.4% (compound 0.0316 µM); 101% and 97.8% (compound 0.1 µM). For the same compound, where the note is “curve of compound”, the IC50 is > 100 nM.

Regarding `COc1c(OCCCN2CCOCC2)ccc2c3n(c(=NC(=O)c4cnc(N)nc4)nc12)CCN3`, the viability, T/C by setting is: (compound 0.00316 µM) 101%; (compound 0.01 µM) 100% and 94.6%; (compound 0.0316 µM) 98.1% and 97.2%; (compound 0.1 µM) 98% and 87.7%; (compound 0.316 µM) 97.2% and 80.9%; (compound 1 µM) 56.2% and 19.3%. For the same compound, the IC50 (curve of compound) was > 1000 nM and 555 nM.

As for `Cc1nc(NC(=O)N2CCCC2C(N)=O)sc1-c1ccnc(C(C)(C)C(F)(F)F)c1` (stereo unspecified), the viability, T/C (compound 0.0316 µM) was 97.1% and 95.8%; the viability, T/C (compound 0.1 µM) is 96.6% and 101%; the viability, T/C (compound 0.316 µM) was 95.6% and 96.5%; the viability, T/C (compound 1 µM) was 93.9% and 93.5%; the viability, T/C (compound 3.16 µM) was 89.7% and 88.6%; the viability, T/C (compound 10 µM) was 85.2% and 79.1%. In addition, the IC50 (curve of compound) is > 10000 nM.

Turning to `Cn1cnc2c(F)c(Nc3ccc(Br)cc3Cl)c(C(=O)NOCCO)cc21`, the viability, T/C is 89.8% and 85.2% (compound 0.00949 µM); 88.6% and 82.3% (compound 0.03 µM); 79% and 71.6% (compound 0.0949 µM); 76.2% and 72.7% (compound 0.3 µM); 46.9% and 36.5% (compound 0.949 µM); 21.5% and 17.7% (compound 3 µM). Moreover, the IC50 (curve of compound) is 867 nM and 611 nM.
